Experimental data taken from patent US8980544B2, “Boronic and borinic acid compounds as inhibitors of sulfenic acid-containing proteins” (The Penn State Research Foundation, priority 2012, dated 2015).
Read-outs that look alike come from different tables or passages of the source. Marks after values point to notes of the source that are not given here.

Tests used:
[1] = pKa by half-neutralization technique in acetonitrile-water; type: physicochemical
Experimental: The final volume of the solutions is 5 mL. The averaged pKa values from duplicate measurements are reported, and used for analysis.
It should be noted that the pKa values determined this way are not corrected for the change in the autoprotolysis constant of the solution due to mix solvent system.

[2] = literature value; cited from earlier work
[3] = molecular target: T1, iron-based NHase from Rhodococcus erythropolis AJ270 (Rhodococcus erythropolis, UniProt P13448); experiment: Enzymatic inhibition of nitrile hydratase (NCTB conversion, 412 nm); type: biochemical; settings: for Average rate (abs/min): 1 mM NCTB, 23° C.; for Rate relative to NHase: NHase without additive = 100%; for Activity: nmol thiolate product per minute per mg freeze-dried NHase powder
T1 construct: purchased Prozomix Limited
T1 sequence (P13448 1-207): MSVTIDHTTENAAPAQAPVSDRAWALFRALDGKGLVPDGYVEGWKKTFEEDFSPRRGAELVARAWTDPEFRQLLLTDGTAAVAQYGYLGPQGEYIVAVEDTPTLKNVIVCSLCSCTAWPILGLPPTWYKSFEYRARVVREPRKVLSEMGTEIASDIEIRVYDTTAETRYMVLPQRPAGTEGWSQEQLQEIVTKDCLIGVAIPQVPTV
T1 sequence (P13449 1-212 partner): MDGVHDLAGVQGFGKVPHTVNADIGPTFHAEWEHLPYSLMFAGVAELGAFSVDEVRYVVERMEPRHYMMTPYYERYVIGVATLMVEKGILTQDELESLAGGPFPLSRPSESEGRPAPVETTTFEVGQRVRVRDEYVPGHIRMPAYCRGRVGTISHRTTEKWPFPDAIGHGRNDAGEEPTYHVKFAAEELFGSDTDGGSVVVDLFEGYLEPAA
Experimental: Here, the catalytic efficiency of the iron-based NHase from Rhodococcus erythropolis AJ270 (purchased from Prozomix Limited, Station court, Haltwhistle, Northumberland, NE49 9HN, UK; see, proxomix.com) was assayed in the presence of a known sulfenic acid trap (dimedone) and four boronic acid derivatives. The chosen assay [Sari et al., J. Inorg. Biochem. 2007 101:614-622] was the conversion of 2-nitro-5-thiocyanatobenzoic acid (NCTB) into formamide and 5-mercapto-2-nitrobenzoic acid.
The freeze-dried powder from Prozomix was shipped at room temperature and stored at −20° C. upon arrival. The enzyme was reconstituted at 20 mg/mL in 50 mM phosphate buffer (pH 7.0) with 40 mM butyric acid. These were similar conditions to those described in the Prozomix protocol, the main difference being the use of phosphate buffer instead of Tris buffer; by itself, NHase prepared in Tris had the same reactivity as samples prepared in phosphate buffer. The solution was exposed to 400 W white light for 25 minutes on ice to permit for photo-reactivation of the enzyme.
The kinetic studies were conducted by diluting the stock solution of NHase into de-ionized distilled water (ddH2O) to get at about 0.33 mg/mL of freeze-dried NHase powder provided by Prozomix (used without further manipulation) in solution. Appropriate amounts of PBA (phenyl boronic acid; 2 g), BOXY ((2-hydroxylmethyl)-benzeneboronic acid hemiester; 2A), 3BrB (3-bromobenzeneboronic acid; 2d), or dimedone were added to the mixtures so that the final concentrations of the boronic acids/dimedone were 0, 0.5, 1.0, 2.0, or 2.5 mM.
After permitting the newly composed mixtures to sit at room temperature (at about 23° C.) for five minutes, NCTB was added so that the final NCTB concentration equalled 1 mM. The final volume of the mixtures was 1 mL in UV-cells with 1 cm path length. The final concentration of the phosphate buffer was 3.6 mM. The progress of the reaction (release of the thiolate product at 412 nm; extinction coefficient at 412 nm=13600/M/cm) [Sari et al., J. Inorg. […] The rates of the reaction were determined from fitting the first 4 minutes of the absorbance vs. time traces to a standard linear equation. The activity values were calculated as nmol of thiolate product generated per minute per mg of freeze-dried NHase powder. The reaction rates are reported below in Table 4, below, as averages of duplicate kinetic studies.

[4] = Spectrophotometric (UV/vis) titration of boronic acids 2 against the sodium salt of sulfenic acid 1, incl. reversibility with NaOH; settings: for Kd: read-out: Averaged Kd from spectrophotometric titrations
Experimental: The titration studies were performed using a Cary 100 Bio UV/vis spectrophotometer thermostated at 22° C. […] Each titration study was completed within 10 minutes.
The initial solution contained 0.8 mM of the sodium salt of 1.

[5] = 15% (v/v) acetonitrile-water mixture, 15% (v/v) acetonitrile-water, half-neutralization, averaged duplicates, Table 1, read-out: pKa in 15% acetonitrile-water at 22° C.
[6] = 70% (v/v) acetonitrile-water mixture, read-out: Averaged pKa value from half neutralization method in 70% (v/v) acetonitrile-water
[7] = 15% acetonitrile-water mixture, 15% acetonitrile-water, as listed in Table 2, read-out: pKa in 15% acetonitrile-water
[8] = complex 1:2, 70% (v/v) acetonitrile-water, 22° C.
[9] = complex 1:2, 15% (v/v) acetonitrile-water

Row | Structure (SMILES) | pKa [1, 5] | pKa [1, 7] | Average rate (abs/min) ([3]; [B]/[Dimedone] = 0.5 mM) | Rate relative to NHase ([3]; [B]/[Dimedone] = 0.5 mM) [%] | Activity ([3]; [B]/[Dimedone] = 0.5 mM) [nmol/min/mg] | Average rate (abs/min) ([3]; [B]/[Dimedone] = 1.0 mM) | Rate relative to NHase ([3]; [B]/[Dimedone] = 1.0 mM) [%] | Activity ([3]; [B]/[Dimedone] = 1.0 mM) [nmol/min/mg] | Average rate (abs/min) ([3]; [B]/[Dimedone] = 2.0 mM) | Rate relative to NHase ([3]; [B]/[Dimedone] = 2.0 mM) | Activity ([3]; [B]/[Dimedone] = 2.0 mM) [nmol/min/mg] | Average rate (abs/min) ([3]; [B]/[Dimedone] = 2.5 mM) | Rate relative to NHase ([3]; [B]/[Dimedone] = 2.5 mM) [%] | Activity ([3]; [B]/[Dimedone] = 2.5 mM) [nmol/min/mg] | further results
1 | O=C1c2ccccc2C(=O)c2c(SO)cccc21 [Compound 1, anthraquinone-1-sulfenic acid, reference compound] | 7.61 ± 0.02 | – | – | – | – | – | – | – | – | – | – | – | – | – | pKa [1, 6]: 8.6 ± 0.1; pKa value reported in Kice et al., J. Org. Chem. 1989 [2]: 7.51
2 | OB1OCc2ccccc21 [Compound 2A, 2-(hydroxymethyl)benzeneboronic acid hemiester] | 7.8 | 7.8 | 0.0039 ± 0.0002 | 87 | 0.870 | 0.0034 ± 0.0002 | 74 | 0.826 | 0.00266 ± 0.00008 | 61% | 0.592 | 0.00205 ± 0.00009 | 45 | 0.502 | pKa [1, 6]: 10.2; Effectiveness of NHase inhibition among the boronic acids examined ([3]; comparison of PBA, BOXY, 3BrB, 0.5-2.5 mM): most effective; Averaged -log (Kd) in 15% acetonitrile-water at 22° C. [4]: 3.8 ± 0.1; Averaged -log (Kd) in 70% acetonitrile-water at 22° C. [4]: 3.90 ± 0.02; Kd [4]: 158 µM
3 | O=[N+]([O-])c1ccc(B(O)O)cc1 [Compound 2b, 4-nitrobenzeneboronic acid] | 7.39 ± 0.05 | – | – | – | – | – | – | – | – | – | – | – | – | – | –
4 | OB(O)c1cccc(Br)c1 [Compound 2d, 3-Bromobenzene-boronic acid] | 8.55 | 8.48 | 0.0039 ± 0.0004 | 87 | 0.878 | 0.00369 ± 0.00009 | 81 | 0.903 | 0.00348 ± 0.0004 | 79% | 0.775 | 0.00319 ± 0.0007 | 69 | 0.782 | Averaged -log (Kd) in 70% acetonitrile-water at 22° C. [4, 8]: 4.0 ± 0.1; Kd [4, 9]: 158 µM
5 | OB(O)c1ccc(Br)cc1 [Compound 2e, 4-bromo-benzeneboronic acid] | 9.1 ± 0.1 | – | – | – | – | – | – | – | – | – | – | – | – | – | –
6 | OB(O)c1ccc(F)cc1 [Compound 2f, 4-fluorobenzene-boronic acid] | 9.4 ± 0.02 | – | – | – | – | – | – | – | – | – | – | – | – | – | –
7 | OB(O)c1ccccc1 [Compound 2g, phenylboronic acid] | 9.5 ± 0.06 | 9.38 | 0.0043 ± 0.0004 | 96 | 0.968 | 0.0041 ± 0.0002 | 91 | 1.006 | 0.00382 ± 0.00004 | 87% | 0.851 | 0.0038 ± 0.0001 | 83 | 0.931 | Averaged -log (Kd) in 70% acetonitrile-water at 22° C. [4, 8]: 3.96 ± 0.04; Kd [4, 9]: 200 µM
8 | COc1ccc(B(O)O)cc1 [Compound 2h, 4-methoxybenzeneboronic acid] | 10.13 ± 0.02 | – | – | – | – | – | – | – | – | – | – | – | – | – | –
9 | CC1(C)CC(=O)CC(=O)C1 [Dimedone, 5,5-dimethyl-1,3-cyclohexanedione, reference compound] | – | – | 0.00274 ± 0.00006 | 61 | 0.611 | 0.0017 ± 0.0004 | 37 | 0.406 | 0 | 0%*** | 0 | 0 | 0 | 0 | –
